Results on one compound are retold here after article PMC6694038, “Pharmacogenomic–pharmacokinetic study of selective estrogen-receptor modulators with intra-patient dose escalation in breast cancer” (Breast Cancer (Tokyo, Japan), 2019).

The conditions of data set [1]: weighting of plasma concentration; cited from earlier work.
The conditions of data set [2]: patients homozygous for CYP2D6 PM genotype on double dose (40 mg) of TAM; cited from earlier work.
Data set [3] is described as follows: Plasma concentrations of TAM, TOR and their metabolites by LC–MS/MS (screening study).
Where [4] appears, read: 14 poor TAM metabolizers enrolled in the dose-escalation study.
The mark [5] stands for this setting: patients on TAM 20 mg a day, N=182.

On to `CC/C(=C(\c1ccc(O)cc1)c1ccc(OCCNC)cc1)c1ccccc1` [Endoxifen, endoxifen], for which the “In vitro activity factor in the total activity of TAM (TAM = 1.0)” value in data set [1] is 46.3. Besides, the “Endoxifen concentration relative to EMs” value in data set [2] is “less than one-half of the endoxifen concentrations for EMs”. In addition, in data set [3] (setting [4]), the “Endoxifen on TAM 20 mg, max” value is given as 12.6 ng/mL; the “Endoxifen on TAM 20 mg, mean” value is 9.7 ng/mL; the “Endoxifen on TAM 20 mg, median” value was determined as 10.4 ng/mL; the “Endoxifen on TAM 20 mg, min” value is listed as 1.8 ng/mL. Further, the “Patients with endoxifen levels lower than 15 ng/mL” value in data set [3] (among the 182 patients on TAM) stood at 50. Besides, the “Patients with endoxifen levels < 7.5 ng/mL” value in data set [3] (of the 273 participating patients) is 11. In data set [3] (setting [5]), the “Plasma concentration, max” value was 64.5 ng/mL; the “Plasma concentration, mean” value turned out to be 23.5 ng/mL; the “Plasma concentration, median” value turned out to be 22.8 ng/mL; the “Plasma concentration, min” value came to 1.8 ng/mL. In addition, in data set [3] (patients taking TAM 20 mg a day), the “Plasma concentration, variability (range)” value fell in the range of 1.8 to 64.5 ng/mL.
